Results as given in patent US4559323A, “A41030 Antibiotics” (Eli Lilly and Company, priority 1984, dated 1985).
Converted amounts (≈) assume the structure as drawn. Read-outs that look alike come from different tables or passages of the source.

Experiments:
Escherichia coli = test: Agar-dilution MIC; format: cell-based; settings: Table 17, 24 hours
Propionibacterium acnes = test: Agar-dilution MIC (anaerobes); format: cell-based
Text: Antibiotic A41030 factors A, B and C have also been tested and found to be active against a genus of anaerobic bacteria identified as Propionibacterium acnes.

Serratia marcescens = test: Agar-dilution MIC; format: cell-based; settings: Table 17; 24 hours; Serratia marcescens X99
[1] = mice, administered intraperitoneally
[2] = test system: Staphylococcus epidermidis; test: Agar-dilution MIC; format: cell-based; settings: 24 hours
Text: (§1) The agar-dilution procedure described by the International Collaborative study (ICS) group was used to determine the minimum inhibitory concentrations (MIC's).

Streptococcus pneumoniae = test: Agar-dilution MIC; format: cell-based; settings: 24 hours
Text: as §1

Pc. magnus = test: Agar-dilution MIC (anaerobes); format: cell-based, Peptococcus magnus; settings: Table 15
Experimental: The MIC values were determined by the agar-dilution method, and are recorded in Table 15, which follows.

S. pyogenes = test: Experimental bacterial infection in mice, subcutaneous ED50; format: in vivo; settings: two doses subcutaneously
Experimental: (§2) All of the A41030 factors tested have shown in vivo antimicrobial activity against experimental bacterial infections. When two doses of test compound were administered subcutaneously to mice in illustrative infections, the activity observed is measured as an ED50 value [effective dose in mg./kg. to protect fifty percent of the test animals: See Warren Wick, et al., J. Bacteriol. 81, 233-235 (1961)].

Staph. aureus = test: as above; format: in vivo; settings: two doses subcutaneously
Experimental: as §2

S. pneumoniae = test: as above; format: in vivo; settings: two doses subcutaneously
Experimental: as §2

Klebsiella pneumoniae = test: Agar-dilution MIC; format: cell-based; settings: Table 17; 24 hours; Klebsiella pneumoniae X68
[3] = test system: Streptococcus sp. ATCC 10389; test: Agar-dilution MIC; format: cell-based; settings: Table 18, 24 hours
Text: (§3) The in vitro activity of antibiotic A41030 factors A and B against a number of representative aerobic, gram-positive bacteria, including Streptococcus sp. Group D, has been determined using a standard agar-dilution assay.

[4] = test system: Streptococcus sp. Group B; test: Agar-dilution MIC; format: cell-based; settings: Table 18, 24 hours
Text: as §3

[5] = test system: Bacteroides melaninogenicus; test: Agar-dilution MIC (anaerobes); format: cell-based; settings: Table 14; Bacteroides melaninogenicus 2736
[6] = test system: Peptococcus asaccharolyticus; test: Agar-dilution MIC (anaerobes); format: cell-based; settings: Table 14; Peptococcus asaccharolyticus 1302
Hemophilus influenzae = test: Agar-dilution MIC; format: cell-based; settings: 24 hours
Citrobacter freundii = settings: Table 17; 24 hours; Citrobacter freundii CF17
Text: as §1

Staphylococcus aureus = test: Agar-dilution MIC; format: cell-based
Enterobacter cloacae = test: Agar-dilution MIC; format: cell-based; settings: Table 17, 24 hours
[7] = test system: Haemophilus parainfluenzae; test: Agar-dilution MIC; format: cell-based; settings: Table 18, 24 hours
[8] = Table 13, 24-hour, P. acnes 101
[9] = Table 13, 24-hour, P. acnes 103
[10] = Table 13, 24-hour, P. acnes 104
[11] = Table 13, 24-hour, P. acnes 105
[12] = Table 13, 24-hour, P. acnes 106
[13] = Table 13, 24-hour, P. acnes 107
[14] = Table 13, 24-hour, P. acnes 5170
[15] = Table 13, 24-hour, P. acnes 5176
[16] = Table 13, 24-hour, P. acnes 5187
[17] = Table 13, 24-hour, P. acnes 5191
[18] = Table 13, 24-hour, P. acnes 5197
[19] = Table 13, 24-hour, P. acnes 5226
[20] = Table 13, 24-hour, P. acnes 5227
[21] = Table 13, 24-hour, P. acnes 5228
[22] = Table 13, 24-hour, P. acnes 5229
[23] = Table 13, 24-hour, P. acnes 5246
[24] = Table 13, 24-hour, P. acnes 5292
[25] = Table 14, Propionibacterium acnes 79
[26] = Table 17, Staphylococcus epidermidis EPI1
[27] = Table 17, Streptococcus pneumoniae Park I
[28] = Table 17, Haemophilus influenzae 251
[29] = Table 17, Haemophilus influenzae Brun
[30] = Table 17, 24 hours, Staphylococcus aureus X400

N[C@H]1C(=O)N[C@@H]2Cc3ccc(c(Cl)c3)Oc3cc4cc(c3O)Oc3ccc(cc3Cl)[C@@H](O)[C@@H]3NC(=O)C(NC(=O)[C@@H]4NC(=O)[C@@H](NC2=O)c2cc(O)cc(c2)Oc2cc1ccc2O)c1ccc(O)c(c1)-c1c(O)cc(O)cc1[C@@H](C(=O)O)NC3=O [A41030 factor B] gave an MIC (Escherichia coli; Escherichia coli EC14) of 128 µg/mL (≈ 107 µM), an MIC (Escherichia coli; Escherichia coli N10) of 128 µg/mL (≈ 107 µM) and an MIC (Escherichia coli; Escherichia coli TEM) of 128 µg/mL (≈ 107 µM). It also gave an MIC (Propionibacterium acnes; Table 13, 24-hour, P. acnes 44) of 0.06 µg/mL (≈ 0.05 µM), an MIC (Propionibacterium acnes; Table 13, 24-hour, P. acnes 79) of 0.06 µg/mL (≈ 0.05 µM) and an MIC (Propionibacterium acnes; [8]) of 0.06 µg/mL (≈ 0.05 µM). For the same compound, the MIC (Propionibacterium acnes; [9]) was 0.06 µg/mL (≈ 0.05 µM), the MIC (Propionibacterium acnes; [10]) was 0.25 µg/mL (≈ 0.209 µM) and the MIC (Propionibacterium acnes; [11]) was 0.06 µg/mL (≈ 0.05 µM). The MIC (Propionibacterium acnes; [12]) was 0.06 µg/mL (≈ 0.05 µM), the MIC (Propionibacterium acnes; [13]) was 0.06 µg/mL (≈ 0.05 µM) and the MIC (Propionibacterium acnes; [14]) was no more than 0.03 µg/mL. It also gave an MIC (Propionibacterium acnes; [15]) of 0.06 µg/mL (≈ 0.05 µM), an MIC (Propionibacterium acnes; [16]) of 0.06 µg/mL (≈ 0.05 µM) and an MIC (Propionibacterium acnes; [17]) of 0.06 µg/mL (≈ 0.05 µM). For the same compound, the MIC (Propionibacterium acnes; [18]) was 0.06 µg/mL (≈ 0.05 µM), the MIC (Propionibacterium acnes; [19]) was 0.5 µg/mL (≈ 0.417 µM) and the MIC (Propionibacterium acnes; [20]) was 0.06 µg/mL (≈ 0.05 µM). The MIC (Propionibacterium acnes; [21]) was 0.5 µg/mL (≈ 0.417 µM), the MIC (Propionibacterium acnes; [22]) was 0.25 µg/mL (≈ 0.209 µM) and the MIC (Propionibacterium acnes; [23]) was 0.125 µg/mL (≈ 0.104 µM). It also gave an MIC (Propionibacterium acnes; [24]) of 0.06 µg/mL (≈ 0.05 µM), an MIC (Propionibacterium acnes; [25]) of 16 µg/mL (≈ 13.3 µM) and an MIC (Serratia marcescens) of 128 µg/mL (≈ 107 µM). It also gave an LD50 [1] greater than 300 mg/kg, an acute toxicity [1] greater than 300 mg/kg and an MIC [2, 26] of 0.125 µg/mL (≈ 0.104 µM). It also gave an MIC ([2]; Table 17, Staphylococcus epidermidis EPI2) of 0.5 µg/mL (≈ 0.417 µM), an MIC ([2]; Table 18, Staphylococcus epidermidis 219) of 0.03 µg/mL (≈ 0.025 µM) and an MIC ([2]; Table 18, Staphylococcus epidermidis 222) of 0.125 µg/mL (≈ 0.104 µM). It also gave an MIC ([2]; Table 18, Staphylococcus epidermidis 269) of 0.03 µg/mL (≈ 0.025 µM), an MIC ([2]; Table 18, Staphylococcus epidermidis 270) of 0.06 µg/mL (≈ 0.05 µM) and an MIC ([2]; Table 18, Staphylococcus epidermidis 285) of 0.03 µg/mL (≈ 0.025 µM). For the same compound, the MIC (Streptococcus pneumoniae; [27]) was 0.5 µg/mL (≈ 0.417 µM), the MIC (Streptococcus pneumoniae; Table 18, Streptococcus pneumoniae B1-438) was 0.5 µg/mL (≈ 0.417 µM) and the MIC (Streptococcus pneumoniae; Table 18, Streptococcus pneumoniae Park I) was 0.125 µg/mL (≈ 0.104 µM). The MIC (Pc. magnus; Pc. magnus 1401) was 0.125 µg/mL (≈ 0.104 µM), the MIC (Pc. magnus; Pc. magnus 1421) was 0.125 µg/mL (≈ 0.104 µM) and the MIC (Pc. magnus; Pc. magnus 1477) was 0.25 µg/mL (≈ 0.209 µM). The ED50 (S. pyogenes) was 1.4 mg/kg, the ED50 (Staph. aureus) was less than 0.43 mg/kg and the ED50 (S. pneumoniae) was 1.4 mg/kg. The MIC (Klebsiella pneumoniae) was 128 µg/mL (≈ 107 µM), the MIC [3] was 0.25 µg/mL (≈ 0.209 µM) and the MIC ([4]; Streptococcus sp. Group B 5) was 1 µg/mL (≈ 0.834 µM). For the same compound, the MIC ([4]; Streptococcus sp. Group B 14) was 0.125 µg/mL (≈ 0.104 µM), the MIC [5] was 4 µg/mL (≈ 3.34 µM) and the MIC [6] was no more than 0.25 µg/mL. It also gave an MIC (Hemophilus influenzae; [28]) of 2 µg/mL (≈ 1.67 µM), an MIC (Hemophilus influenzae; [29]) of 8 µg/mL (≈ 6.67 µM) and an MIC (Hemophilus influenzae; Table 18, Haemophilus influenzae 76) of 4 µg/mL (≈ 3.34 µM). It also gave an MIC (Hemophilus influenzae; Table 18, Haemophilus influenzae 312) of 4 µg/mL (≈ 3.34 µM), an MIC (Hemophilus influenzae; Table 18, Haemophilus influenzae 4842) of 4 µg/mL (≈ 3.34 µM) and an MIC (Hemophilus influenzae; Table 18, Haemophilus influenzae 16836) of 4 µg/mL (≈ 3.34 µM). The MIC (Hemophilus influenzae; Table 18, Haemophilus influenzae Bond) was 4 µg/mL (≈ 3.34 µM), the MIC (Hemophilus influenzae; Table 18, Haemophilus influenzae C.L.) was 8 µg/mL (≈ 6.67 µM) and the MIC (Hemophilus influenzae; Table 18, Haemophilus influenzae Mx366) was 4 µg/mL (≈ 3.34 µM). It also gave an MIC (Hemophilus influenzae; Table 18, Haemophilus influenzae Mx371) of 4 µg/mL (≈ 3.34 µM), an MIC (Citrobacter freundii) of 128 µg/mL (≈ 107 µM) and an MIC (Staphylococcus aureus) of 0.125 µg/mL (≈ 0.104 µM). The MIC (Staphylococcus aureus; Table 17, 24 hours, Staphylococcus aureus S13E) was 0.125 µg/mL (≈ 0.104 µM), the MIC (Staphylococcus aureus; [30]) was 0.25 µg/mL (≈ 0.209 µM) and the MIC (Staphylococcus aureus; Table 18, 24 hours, Staphylococcus aureus 3055) was 0.06 µg/mL (≈ 0.05 µM). For the same compound, the MIC (Staphylococcus aureus; Table 18, 24 hours, Staphylococcus aureus V138) was 0.06 µg/mL (≈ 0.05 µM), the MIC (Enterobacter cloacae; Enterobacter cloacae 265A) was 128 µg/mL (≈ 107 µM) and the MIC (Enterobacter cloacae; Enterobacter cloacae EB5) was 128 µg/mL (≈ 107 µM). The MIC ([7]; Haemophilus parainfluenzae 7901) was 16 µg/mL (≈ 13.3 µM) and the MIC ([7]; Haemophilus parainfluenzae 9796) was 16 µg/mL (≈ 13.3 µM).

In the case of A41030 factor C, the MIC (Propionibacterium acnes; Table 13, 24-hour, P. acnes 44) is reported as 0.125 µg/mL, the MIC (Propionibacterium acnes; Table 13, 24-hour, P. acnes 79) is reported as 0.125 µg/mL and the MIC (Propionibacterium acnes; [8]) is reported as 0.125 µg/mL. For the same compound, the MIC (Propionibacterium acnes; [9]) was 0.125 µg/mL, the MIC (Propionibacterium acnes; [10]) was 0.25 µg/mL and the MIC (Propionibacterium acnes; [11]) was 0.125 µg/mL. For the same compound, the MIC (Propionibacterium acnes; [12]) was 0.125 µg/mL, the MIC (Propionibacterium acnes; [13]) was 0.125 µg/mL and the MIC (Propionibacterium acnes; [14]) was no more than 0.03 µg/mL. The MIC (Propionibacterium acnes; [15]) was no more than 0.03 µg/mL, the MIC (Propionibacterium acnes; [16]) was 0.06 µg/mL and the MIC (Propionibacterium acnes; [17]) was 0.125 µg/mL. It also gave an MIC (Propionibacterium acnes; [18]) of no more than 0.03 µg/mL, an MIC (Propionibacterium acnes; [19]) of 0.125 µg/mL and an MIC (Propionibacterium acnes; [20]) of 0.06 µg/mL. The MIC (Propionibacterium acnes; [21]) was 1.0 µg/mL, the MIC (Propionibacterium acnes; [22]) was 0.5 µg/mL and the MIC (Propionibacterium acnes; [23]) was 0.06 µg/mL. It also gave an MIC (Propionibacterium acnes; [24]) of 0.06 µg/mL, an MIC (Propionibacterium acnes; [25]) of no more than 0.25 µg/mL and an MIC [2, 26] of 0.5 µg/mL. For the same compound, the MIC (Streptococcus pneumoniae; [27]) was 1 µg/mL, the MIC (Pc. magnus; Pc. magnus 1401) was 0.25 µg/mL and the MIC (Pc. magnus; Pc. magnus 1421) was 0.25 µg/mL. The MIC (Pc. magnus; Pc. magnus 1477) was 0.5 µg/mL, the ED50 (S. pyogenes) was 10.4 mg/kg and the ED50 (Staph. aureus) was less than 0.43 mg/kg. It also gave an ED50 (S. pneumoniae) of 6.7 mg/kg, an MIC [5] of 4 µg/mL and an MIC [6] of no more than 0.25 µg/mL. The MIC (Hemophilus influenzae; [28]) was 4 µg/mL, the MIC (Hemophilus influenzae; [29]) was 16 µg/mL and the MIC (Staphylococcus aureus; [30]) was 1 µg/mL.
